We go through one molecule from paper PMC3465347, “Regulation of NF-κB Activation through a Novel PI-3K-Independent and PKA/Akt-Dependent Pathway in Human Umbilical Vein Endothelial Cells” (PLoS ONE, 2012).

The test system of series [1] is p38 MAPK. Description: p38 MAPK activation western blot. The class given is cell-based, human. Conditions: MPTAG pretreatment. For orientation: Immunoblotting shows a protein as a band on a membrane.
Series [2] deals with human endothelial cells (HUVECs). Put plainly: MTT cytotoxicity assay. The class given is cell-based. How it is done: The cytotoxicity of MPG and its derivatives was analyzed by colorimetric assay using MTT (Thiazolyl blue tetrazolium bromide) reagent as described previously. All experiments were performed at least 3 times in triplicate wells. From this assay, the percentage viability (% viability) of the cells at various concentrations of each compound was determined by normalization to control wells that contained cells incubated in vehicle (0.25% DMSO or cell culture medium) and which were considered 100% viable. The highest concentration at which the viability of the cells was >95% was denoted as the maximum tolerable concentration for that compound.

The test system of series [3] is IκBα in endothelial cells. Description: IκBα phosphorylation and degradation western blot. It counts as cell-based, human. Conditions: 400 µM, TNF-α 30 mins. How it is done: Nuclear and cytoplasmic extracts were fractionated on SDS-PAGE with equal amount of proteins per well and transferred onto PVDF membranes and those membranes were incubated with appropriate primary antibodies and treated with HRP conjugated secondary antibodies followed by detection with DAB-H2O2 system. β-tubulin, α-actin and Lamin B1 were used as loading controls. Antibodies against NF-κBp65, phosphoNF-κBp65, IκBα, phosphoIκBα, IKK-β, Akt, phosphoAkt (Ser473) and phosphoAkt (Thr308) were used.

The target in series [4] is T1, PKA (Homo sapiens, UniProt P17612).
T1 construct: PKA was immunoprecipitated from the total cell lysates of unstimulated and TNF-α-stimulated endothelial cells; endogenous in cells; host or cells: HUVEC (treated with MPTAG, SQ 22536, H-89 ± TNF-α), anti-PKAα immunoprecipitate
Description: PKA activity assay. It counts as cell-based. The source says: PKA was immunoprecipitated from the total cell lysates of unstimulated and TNF-α-stimulated endothelial cells in presence and absence of treatment with agents indicated in Figure 7 using anti-PKAα (W-18) antibody. The immunoprecipates were subjected to kinase activity assay using a Bisamide Rhodamine 110 peptide substrate as per the instructions of the Profluor PKA assay kit (Promega, USA).

In series [5] the test system is NF-κBp65 subunit translocation in HUVECs. Put plainly: NF-κB p65 nuclear translocation (western blot, immunocytochemistry). The class given is cell-based, human. Conditions: 400 µM, TNF-α-induced. As to the method:
The endothelial cells were subjected to the indicated treatments followed by induction with TNF-α for indicated time points or 30 mins. The cells were then washed with PBS and dislodged using a cell scraper. The cytoplasmic and nuclear extracts were prepared as described previously, [46].
To study the effect of MPTAG on nuclear translocation of NF-κBp65 subunit in presence of TNF-α-stimulation, the HUVECs were seeded on gelatinized glass bottom 6-well plate at a cell density of 0.3×10^6 cells/ml. Following day, media was changed and MPTAG was added to the cells for 2 h. After the end of drug pretreatment, cells were induced with TNF-α for 45 mins. The cell monolayers were washed with PBS (phosphate buffered saline containing 1 mM CaCl2 and 1 mM MgCl2) and were fixed in a solution, containing 4% paraformaldehyde in 120 mM sodium phosphate buffer pH 7.2–7.4, for 20 mins at room temperature. The cells were then permeabilized using a high salt buffer, containing 0.45 M NaCl and 20 mM sodium phosphate buffer pH 7.2–7.4, 0.3% Triton X-100 and 0.2% gelatin, for 1 h at room temperature. Following this, the cells were incubated with anti-NF-κBp65 antibody for 2 h at room temperature. […] The fluorescent signals were then quantitated by selecting the nuclear and cytoplasmic regions in different fields using the NTS imaging software. […]

The test system of series [6] is TNF-α-induced ICAM-1 expression on human endothelial cells. Put plainly: Cell-ELISA for ICAM-1 expression. The class given is cell-based. How it is done:
The endothelial cells were incubated with or without MPG and its derivatives at various concentrations for 2 h followed by treatment with TNF-α (10 ng/ml) for 16 h for ICAM-1 and VCAM-1 expression and 4 h for E-selectin expression. A Cell-ELISA was used to assess the expression of ICAM-1, VCAM-1 and E-selectin on the surface of endothelial cells as described previously.

Series [7] concerns ERK1/2. Description: ERK1/2 activation western blot. It counts as cell-based, human. To be noted: MPTAG pretreatment.
Series [8] concerns PI-3K. Description: PI-3K activity assay. It counts as cell-based, human. To be noted: pretreatment, HUVECs. An excerpt:
The catalytic domain of PI-3K was immunoprecipitated from the stimulated and unstimulated endothelial in presence and absence of various compound treatment using an anti-p85α (N-18) antibody. The immunoprecipated proteins were subjected to kinase activity assay using a PI substrate, diC8 followed by detection of the PI(3)P as per the instructions of the Class III PI-3kinase kit (Echelon, USA).

Series [9] relates to ICAM-1 mRNA in endothelial cells. Description: RT-PCR of ICAM-1 transcript. The class given is cell-based, human. To be noted: 400 µM pretreatment, TNF-α 10 ng/ml 4 h. How it is done: In order to examine whether MPTAG reduced the mRNA transcript levels of cell adhesion molecules genes, the endothelial cells were pretreated with 400 µM MPTAG for 2 h before induction with TNF-α for 4 h followed by RT-PCR. RNA was isolated from MPTAG-treated cells according to a modified guanidinium thiocyanate procedure. The expression of the transcripts for ICAM-1, VCAM-1 and E-selectin was evaluated by RT-PCR [45]. β-Actin levels expressed under similar conditions were used as a loading control.

SMILES strings stand for the structures.

As to `CC(=O)OC[C@H]1O[C@@H](Oc2c(C)occc2=O)[C@H](OC(C)=O)[C@@H](OC(C)=O)[C@@H]1OC(C)=O` [MPTAG, 2-methyl-pyran-4-one-3-O-β-D-2′,3′,4′,6′-tetra-O-acetyl glucopyranoside], in [1], the “TNF-α-induced p38 activation” value was “no effect”. The “morphology and viability in HUVECs” value in [2] (400 µM) was “without affecting”. Moreover, in series [2] (MTT, human endothelial cells), the “cytotoxicity compared to parent compound MPG and the other two derivatives” value is “less cytotoxic”. In addition, in [3], the “TNF-α-induced degradation of IκBα” value is “inhibited” and the “TNF-α-induced phosphorylation of IκBα” value is reported as “inhibited”. For the same molecule, the “PKA activity in unstimulated HUVECs, MPTAG and SQ 22536 added together” value in [4] (MPTAG + SQ 22536) is “remained increased”. Moreover, the “PKA activity in TNF-α-stimulated HUVECs” value in series [4] (MPTAG alone or together with SQ 22536) is “restored PKA activity”. Moreover, the “translocation of NF-κBp65 subunit into the nucleus” value in series [5] was “prevented the translocation”. For the same molecule, the “inhibition of ICAM-1” value in [6] (added 2–4 h prior to TNF-α stimulation, data not shown) is “maximum inhibition”. Moreover, the “rank among derivatives for inhibition of TNF-α-induced ICAM-1, VCAM-1, E-selectin expression and neutrophil adhesion” value in series [6] (human endothelial cells, Table S2) is reported as “most active derivative”. In addition, the “TNF-α-induced ERK activation” value in series [7] was “no effect”. Moreover, the “TNF-α-induced PI-3K activity” value in series [8] is given as “no effect”. Also, the “TNF-α-induced ICAM-1 mRNA level” value in series [9] was “significantly reduced”.
